# Data taken from US20090291857A1, “METHODS TO IDENTIFY INHIBITORS OF THE UNFOLDED PROTEIN RESPONSE” (THE BOARD OF TRUSTEES OF THE LELAND STANFORD JUNIOR …, priority 2006, published 2009).
# Assays:
# [1] = system: IRE1α/XBP-1 pathway (XBP1-luciferase reporter); assay: High throughput XBP-luciferase reporter screen, tunicamycin/thapsigargin induced (HTS and IRE IC50); assay type: cell-based, human
# Method: Specifically, HT1080 fibrosarcoma cells stably transfected with the unspliced XBP-1-luciferase reporter construct (3000/well) were plated onto a solid white 384 well microplate with a multidrop dispenser (40 μL per well). The plates were then placed into an automated incubator. After 24 hours of growth, a mixture of tunicamycin (1 μg/ml) and thapsigargin (100 nM) inducers were added, and candidate compounds were then added to the plates. After 24 hours, luciferase reagent (10 μl) was added to each well and the plates were read in a Molecular Devices Analyst GT (0.2 second read per well).
# As described above in Example 2, HT1080 fibrosarcoma cells stably expressing the XBP-luciferase reporter were plated in a 384 well microplate (4000 cells/well). After 24 hours, cells were treated with a mixture of tunicamycin (4 μg/ml) and thapsigargin (0.4 μM), followed by the addition of one compound per well (10 μM). We screened a total of 66,000 diverse molecules obtained from Specs, Chembridge and ChemRX. Twenty-four hours post-induction, BriteGlo luciferase substrate (10 μl) was added to each well and the signal intensity determined in a plate reader (0.2 s read per well). […] We retested 431 compounds from the initial screen, and selected 58 compounds for additional analysis, including calculation of IC50 values and inhibition of a CMV-luciferase reporter.
# A. XBP-luciferase reporter construct. Firefly luciferase was inserted downstream of the IRE1α splice site in human XBP-1 to enable the conditional translation of luciferase under ER stress in an IRE1α-dependent manner. B. Selective inhibition of the XBP-luciferase reporter by irestatin 9389. HT1080 human fibrosarcoma cells stably expressing the XBP-luciferase reporter or CMV-luciferase were cultured in the presence of Tm (4 μg/ml) and Tg (0.4 μM) and irestatin 9389 at the indicated concentrations. After 24 hours, luciferase activity was analyzed in an automated plate reader. For each cell line, values are expressed as the percent inhibition of the median for Tm/Tg-treated wells, corrected for background. C. Structure of irestatin 9389. D. XBP-luciferase reporter assay. HT1080 cells stably expressing the XBP-luciferase reporter were exposed to Tm (4 μg/ml) for 24 hours or hypoxia (0.1% oxygen) for 24 or 48 hours, in the presence of DMSO or irestatin 9389 (1 μM) as indicated. Values are expressed as the fold increases over uninduced levels. E. 5X-UPRE reporter assay. HT1080 cells were co-transfected with 5X-UPRE luciferase and SV40-beta-gal reporter plasmids, followed by exposure to Tm or hypoxia as in D. For each condition, luciferase activity is normalized to beta-galactosidase expression levels as an internal control for transfection efficiency. F. Western immunoblot analysis of XBP-1s. HT1080 cells were left untreated (lane 2) or exposed to Tm (4 μg/ml) for 20 hours in the presence of DMSO vehicle (lane 1) or the indicated irestatins (2 μM; lanes 3-6). Cell lysates were resolved by SDS-PAGE and immunoblotting using antisera specific for XBP-1s (top panel) or actin and GAPDH (bottom panel) as loading controls. […] HT1080 cells were treated with DMSO or exposed to irestatin 9389 (2 μM; lane 3) in normoxia (N) or under hypoxia for 24 hours (H 24; lanes 2,3). Cells were harvested, lysed, and analyzed by immunoblotting with antisera specific for HIF-1α (top), XBP-1s (middle) or actin (bottom). H. Northern blot analysis of XBP-1s transcription targets. Cells were exposed to Tm (4 μg/ml) or hypoxia for 24 hours (H 24) in the absence or presence of irestatin 9389 (2 μM). Total RNA was analyzed by Northern blotting using radiolabeled probes specific for P58^IPK or DER-1. Total rRNA is shown as loading control.
# As described above, a HT1080 fibrosarcoma cell line stably expressing a fusion of unprocessed XBP-1 inserted upstream of firefly luciferase has been developed to identify small molecule inhibitors of the IRE1α/XBP-1 signaling module. […]
# [2] = system: XBP-1s; assay: Western immunoblot analysis of XBP-1s in HT1080 cells; assay type: cell-based, human; details: 2 μM; for levels of XBP-1s under hypoxia: 24 hours of hypoxia
# Method: Cells were harvested, lysed, and analyzed by Western blot using anti-XBP-1 antisera (lower panel) or anti-HIF-1 antisera (top panel) to confirm hypoxia exposure.
# Cells (2×10^6) were cultured in 10-cm dishes, collected using a cell scraper at 4° C., and lysed by addition of 150 μl cell lysis buffer [50 mM Tris pH 7.4, 150 mM NaCl, 10% glycerol, 0.5% Triton X-100. 0.5% NP-40, 2 mM Na3VO4, 20 mM beta-glycerophosphate, 10 mM NaF, 1 mM DTT, 1 mM PMSF). Lysates were centrifuged for 5 min at 10,000×g, and proteins (˜40 μg) were resolved by SDS-PAGE followed by semi-dry transfer to nitrocellulose membranes. Membranes were blocked in TBS-5% milk supplemented with 0.1% Tween-20. The blots were then probed overnight with relevant antibodies, washed, and incubated for 2 hours with species-specific secondary antibodies conjugated to horseradish peroxidase. After washing in block solution, immunoreactive material was detected by enhanced chemiluminescence (SuperSignal West Dura Extended, Pierce, Inc., Rockville, Ill.).
# A. XBP-luciferase reporter construct. Firefly luciferase was inserted downstream of the IRE1α splice site in human XBP-1 to enable the conditional translation of luciferase under ER stress in an IRE1α-dependent manner. B. Selective inhibition of the XBP-luciferase reporter by irestatin 9389. […] After 24 hours, luciferase activity was analyzed in an automated plate reader. For each cell line, values are expressed as the percent inhibition of the median for Tm/Tg-treated wells, corrected for background. […] Values are expressed as the fold increases over uninduced levels. […] Cells were harvested, lysed, and analyzed by immunoblotting with antisera specific for HIF-1α (top), XBP-1s (middle) or actin (bottom). […] Total RNA was analyzed by Northern blotting using radiolabeled probes specific for P58^IPK or DER-1. […]
# Since these assays employed a chimeric XBP-luciferase substrate, we next determined whether irestatin 9389 could inhibit the function of endogenous XBP-1s. […]
structure (smiles),measurement,setting,value
Cc1csc(NC(=O)CSc2nc3c(c(C(F)(F)F)c2C#N)CCC3)n1 [Compound 9389],inhibition of IRE1α / IRE1α/XBP-1 signaling module in screen,"[1]; HT1080 XBP-luciferase, Tm/Tg",potent and specific inhibition of IRE1α
same,inhibition at 10 µM,"[1]; Homo sapiens, 24 h, inhibition of XBP1-luciferase reporter, read-out: Activity Class",75 to 100%
same,IC50,"[1]; Homo sapiens, HT-1080, 24 h, HT1080, Tm 4 μg/ml and Tg 0.4 μM, 24 hours, read-out: mean inhibitory concentration (IC50) of XBP-luciferase activity",~25 nM
same,inhibition at 20 µM,"[1]; Homo sapiens, IRE IC50 assay, Conc 20 uM",87.1%
same,levels of XBP-1s under hypoxia,[2]; listed as Irestatin 9389,blocks the accumulation of XBP-1s
same,levels of XBP-1s under hypoxia,[2]; listed as irestatin 9389,decreased levels of XBP-1s
same,accumulation of XBP-1s following treatment with Tm,[2]; Tm 4 μg/ml 20 hours,blocked the accumulation of XBP-1s
